Test systems include DMS-273; HOP-18; SF-539; DMS-114; SK-MEL-2; HL-60; A549; KM12; NCI-H226; CCRF-CEM; SK-OV-3; OVCAR-8; MOLT-4; NCI-H23; HCT-15; KM-20L2; EKVX; MDA-N; T47D; BT-549.
Holding throughout (assay): inhibition of tumour cell growth, NCI panel, 48 h

The results in this text go back to ChEMBL document CHEMBL1201862, “PubChem BioAssay data set” (2004).

The structures appear in SMILES notation.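 All cell lines were grown in 96-well plates and treated with compound for 48 hours. Abbreviation: GI50, concentration required for 50% inhibition of growth.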 Active and inactive are the calls of the source. Rule as the data show it: active = GI50 up to about 1.1 µM and inactive = higher.

In the case of `N#CC(Nc1cccc(C(F)(F)F)c1)c1ccccc1C(F)(F)F` (stereo unspecified), the GI50 was 8.04 µM (inactive) in the experiment on DMS-273; 13.5 µM (inactive) in the experiment on HOP-18; 18.4 µM (inactive) in the experiment on SF-539; 8.91 µM (inactive) in the experiment on DMS-114; 7.21 µM (inactive) in the experiment on SK-MEL-2; 4.9 µM (inactive) in the experiment with HL-60. For the same molecule, the GI50 was 15.3 µM (inactive) in the experiment on A549; 7.52 µM (inactive) in the experiment with KM12; 15.9 µM (inactive) with NCI-H226; 18.4 µM (inactive) in the experiment with CCRF-CEM; 17.6 µM (inactive) in the experiment on SK-OV-3; 16.3 µM (inactive) with OVCAR-8. Also, the GI50 in the experiment on MOLT-4 was 14.6 µM (inactive); in the experiment with NCI-H23, 13.9 µM (inactive); in the experiment with HCT-15 it was 7 µM; with KM-20L2, 13.8 µM (inactive); in the experiment on EKVX, 15.4 µM (inactive).
`COc1cccc2c1C(=O)c1c(O)c3c(c(O)c1C2=O)C[C@@](O)(C(C)=O)CC3S(=O)(=O)O` (stereo partly specified): the GI50 in the experiment on DMS-273, in the experiment on HOP-18, with SF-539, in the experiment with DMS-114, in the experiment with SK-MEL-2 and with HL-60 was > 100 µM (inactive) in each case. Further, the GI50 in the experiment on A549, in the experiment with KM12, with NCI-H226, in the experiment with CCRF-CEM, in the experiment on SK-OV-3 and with OVCAR-8 was > 100 µM (inactive) each time. In addition, the GI50 was > 100 µM (inactive) with MOLT-4; > 100 µM (inactive) in the experiment on NCI-H23; greater than 100 µM in the experiment with HCT-15; > 100 µM (inactive) in the experiment with KM-20L2; > 100 µM (inactive) in the experiment on EKVX.
Take `CSCC[C@@H]1C(=O)N(C)[C@H](C(C)(C)C)N1C(=O)c1ccccc1`: the GI50 in the experiment with DMS-273, with HOP-18, with SF-539, with DMS-114, in the experiment with SK-MEL-2 and with HL-60 was > 100 µM (inactive) throughout. The GI50 with A549, in the experiment with KM12, with NCI-H226, with CCRF-CEM, in the experiment on SK-OV-3 and in the experiment with OVCAR-8 was > 100 µM (inactive) in each case. For the same molecule, the GI50 in the experiment on MOLT-4 was > 100 µM (inactive); in the experiment with NCI-H23 it was > 100 µM (inactive); in the experiment on HCT-15, greater than 100 µM; in the experiment on KM-20L2, > 100 µM (inactive); in the experiment with EKVX, > 100 µM (inactive).
For the molecule `NC1=NN(c2ccccc2)C(=O)C1C(=O)C(=O)Nc1ccc(Cl)cc1` (stereo unspecified), the GI50 with DMS-273, in the experiment with HOP-18, in the experiment with SF-539, with DMS-114, with SK-MEL-2 and in the experiment with HL-60 was > 100 µM (inactive) in each case. The GI50 in the experiment with A549, in the experiment with KM12, in the experiment on NCI-H226, in the experiment with CCRF-CEM, in the experiment with SK-OV-3 and in the experiment on OVCAR-8 was > 100 µM (inactive) each time. The GI50 in the experiment with MOLT-4 is > 100 µM (inactive); in the experiment with NCI-H23, > 100 µM (inactive); in the experiment with HCT-15 it was greater than 100 µM; with KM-20L2, > 100 µM (inactive); with EKVX it was > 100 µM (inactive).
Take `CC(C)c1cccc(C(C)C)c1NC(=O)C(=O)C1CCC2=C(Sc3ccccc3N2)C1=O` (stereo unspecified): the GI50 was 40.5 µM (inactive) in the experiment on DMS-273; > 100 µM (inactive) in the experiment on HOP-18; 31.3 µM (inactive) in the experiment with SF-539; 52.8 µM (inactive) in the experiment on DMS-114; > 100 µM (inactive) with SK-MEL-2; 74.1 µM (inactive) with HL-60. In addition, the GI50 with A549 was > 100 µM (inactive); with KM12 it was > 100 µM (inactive); in the experiment on NCI-H226 it was 29.4 µM (inactive); in the experiment with CCRF-CEM, 24 µM (inactive); in the experiment on SK-OV-3, 60.8 µM (inactive); in the experiment on OVCAR-8, 38.7 µM (inactive). Moreover, the GI50 was 43.7 µM (inactive) in the experiment on MOLT-4; 31.6 µM (inactive) in the experiment on NCI-H23; 61.7 µM in the experiment with HCT-15; 86.3 µM (inactive) in the experiment on KM-20L2; > 100 µM (inactive) in the experiment on EKVX.
As for `Cc1ccc2[nH]c3c(C)c4cc[n+](C)cc4c(C)c3c2c1`, the GI50 was 2.33 µM (inactive) with DMS-273; 9.66 µM (inactive) in the experiment with HOP-18; 0.849 µM (active) in the experiment with SF-539; 0.61 µM (active) in the experiment on DMS-114; 1.7 µM (inactive) in the experiment with SK-MEL-2; 4.03 µM (inactive) with MDA-N. The GI50 with HL-60 is 5.12 µM (inactive); in the experiment with A549 it was 0.325 µM (active); with KM12 it was 0.67 µM (active); in the experiment on T47D, 1.55 µM (inactive); in the experiment with NCI-H226, 0.74 µM (active); in the experiment with BT-549, 0.753 µM (active). Further, the GI50 was 3.06 µM (inactive) in the experiment with CCRF-CEM; 2.51 µM (inactive) in the experiment on SK-OV-3; 0.612 µM (active) in the experiment on OVCAR-8; 5.87 µM (inactive) with MOLT-4; 1.23 µM (inactive) with NCI-H23; 14.1 µM with HCT-15. The GI50 was 3.96 µM (inactive) with KM-20L2 and 1.27 µM (inactive) with EKVX.
Turning to `CC1=C[C@]2(O)C(=O)[C@H](C)C[C@H]3[C@@H](CC[C@@](C)(O)/C=C\2C1=O)C3(C)C`, the GI50 was 22.4 µM (inactive) with DMS-273; 44.9 µM (inactive) in the experiment on HOP-18; 22.4 µM (inactive) with SF-539; 22.6 µM (inactive) with DMS-114; 17.9 µM (inactive) with SK-MEL-2; > 100 µM (inactive) with HL-60. In addition, the GI50 with A549 was 35.5 µM (inactive); in the experiment on KM12 it was 34.7 µM (inactive); with NCI-H226, 33.7 µM (inactive); in the experiment on CCRF-CEM it was 24.8 µM (inactive); in the experiment on SK-OV-3 it was > 56.8 µM (inactive); in the experiment with OVCAR-8 it was 20.5 µM (inactive). Besides, the GI50 was 17.9 µM (inactive) in the experiment with MOLT-4; 25.6 µM (inactive) in the experiment on NCI-H23; 17 µM with HCT-15; 14.5 µM (inactive) in the experiment on KM-20L2; 70.5 µM (inactive) with EKVX.
Take `CCOC(=O)C(CC(C)C)NC(=O)C(Cc1ccc(N(CCCl)CCCl)cc1)NC(C)=O` (stereo unspecified): the GI50 in the experiment on DMS-273 is 4.47 µM (inactive); in the experiment on HOP-18, 14 µM (inactive); in the experiment with SF-539, 2.18 µM (inactive); with DMS-114 it was 0.849 µM (active); with SK-MEL-2, 2.45 µM (inactive); in the experiment with MDA-N, 2.67 µM (inactive). Besides, the GI50 in the experiment with HL-60 is 0.426 µM (active); with A549, 13.4 µM (inactive); in the experiment with KM12, 20.7 µM (inactive); in the experiment on T47D, 2.17 µM (inactive); in the experiment on NCI-H226, 14.4 µM (inactive); with BT-549, 6.67 µM (inactive). In addition, the GI50 is 0.621 µM (active) in the experiment with CCRF-CEM; 15.8 µM (inactive) in the experiment on SK-OV-3; 8.63 µM (inactive) in the experiment on OVCAR-8; 4.24 µM (inactive) in the experiment with NCI-H23; 9.71 µM with HCT-15; 20 µM (inactive) in the experiment with KM-20L2. The GI50 in the experiment on EKVX was 11.1 µM (inactive).
